Measurements reported in patent US20160115540A1, “PRODRUGS AND DRUGS” (Biogen MA Inc., priority 2013, published 2016).
Structures can show the parent of a compound that is named as a salt.

Columns and labels:
[1] = test system: striatum; assay: Transcriptional profiling on Affymetrix GeneChips, single dose, naïve mice: striatum; type: in vivo, C57BL/6 mice; settings: for Number of differentially expressed genes identified: Striatum: Naïve, Single Dose, 100 mpk, vs Vehicle
Method: (§1) Treated mice were sacrificed at 2, 7, or 12 hours. Tissues (liver, spleen, kidney, jejunum, cortex, hippocampus, striatum and whole blood) were collected and analyzed by transcriptional profiling on mouse Affymetrix GeneChips.
(§2) Tissues (liver, spleen, kidney, jejunum, cortex, hippocampus, striatum and whole blood) were collected and analyzed by transcriptional profiling on mouse Affymetrix GeneChips.
(§3) Animals were exposed to CO2 and whole blood collected via cardiac puncture. Two 100 μl aliquots of whole blood were collected in 1.5 mL microcentrifuge tubes and snap frozen in liquid nitrogen. Peripheral (liver, spleen, kidney and jejunum) and CNS brain (cerebellum, hippocampus, striatum and cortex) tissues were harvested and snap frozen in liquid nitrogen, with special care taken to collect tissues of similar size and from the same location. All samples were stored at −80° C. until RNA extraction was conducted.
(§4) For RNA preparation, frozen tissues were placed in 2 mL RNAse-free 96-well blocks with 1.5 mL QIAzol Lysis Reagent (QIAgen) and a 3.2 mm stainless steel bead (BioSpec Products, Bartlesville, Okla.). Tissues were disrupted for four cycles of 45 seconds in a Mini-Beadbeater (Biospec Products). RNA was extracted in chloroform and the aqueous phase was mixed with an equal volume of 70% ethanol. Extracted RNA was applied to RNeasy 96 plates and purified by the spin method according to the manufacturer's protocol (RNeasy 96 Universal Tissue Protocol, QIAgen, Hilden Germany).
(§5) Automated sample amplifications and biotin labelings were carried out using the NuGEN Ovation RNA Amplification system V2 (Cat #3100), Ovation WB reagent (Cat #1300) and Encore Biotin module (Cat #4200) (NuGEN Technologies, Inc, San Carlos, Calif.) according to manufacturer's recommendations using an Arrayplex automated liquid handler (Beckman Coulter, Indianapolis, Ind.). Two micrograms of biotin labeled sscDNA probe were hybridized to Affymetrix GeneChip Affymetrix HT_MG-430_PM plate arrays with modified conditions as described in Allaire et al. Washing and staining of the hybridized arrays were completed as described in the GeneChip Expression analysis technical manual for HT plate arrays using the Genechip® Array Station (Affymetrix, Santa Clara, Calif.) with modifications as described in Allaire et al. The processed GeneChip® plate arrays were scanned using GeneTitan scanner (Affymetrix, Santa Clara, Calif.).
(§6) Affymetrix scans were subject to quality control (QC) measures. These tests included a visual inspection of the distribution of raw signal intensities and an assessment of RNA degradation, relative log expression (RLE), and normalized unsealed standard error (NUSE). All sample scans that passed these QC metrics were included in the analysis.
(§7) All CEL files were subjected to GC-content-based Robust Multi-array Average (GCRMA) normalization (version 2.20.0) (Irizarry R A, et al. Nucleic Acids Res 2003; 31:e15; Li C, et al. Genome Biol 2001; 2:[…]0032). Expression levels were log (base 2) transformed.
(§8) All calculations and analyses were carried out using R (version 2.11.1) and Bioconductor computational tools (Gentleman R. Springer Science+Business Media 2005).

[2] = test system: cortex; assay: Transcriptional profiling on Affymetrix GeneChips, single dose, naïve mice: cortex; type: in vivo, C57BL/6 mice; settings: for Number of differentially expressed genes identified: Cortex: Naïve, Single Dose, 100 mpk, vs Vehicle
Method: as §1, §2, §3, §4, §5, §6, §7, §8

[3] = striatum, 2 hr after single 100 mg/kg oral dose
[4] = striatum, 12 hr after single 100 mg/kg oral dose
[5] = cortex, 2 hr after single 100 mg/kg oral dose
[6] = cortex, 7 hr after single 100 mg/kg oral dose

COC(=O)/C=C/C(=O)O [MMF, monomethyl fumarate]
Number of differentially expressed genes identified: Striatum ([1]; 2 h after last dosing): 6 | Number of differentially expressed genes identified: Striatum ([1]; 7 h after last dosing): 1 | Number of differentially expressed genes identified: Striatum ([1]; 12 h after last dosing): 7 | Number of genes, DMF Only / MMF Only ([1]; Striatum): 12 | Gna13 (1422556_PM_at) differential expression ([1]; Striatum, 2 hr): −1.63 | Golga3 (1449616_PM_s_at) differential expression ([1]; Striatum, 2 hr): −1.63 | Grin2a (1421616_PM_at) differential expression ([1]; Striatum, 2 hr): −1.78 | Kdm3b (1428320_PM_at) differential expression ([1]; Striatum, 2 hr): −1.56 | Lrrc41 (1427125_PM_s_at) differential expression ([1]; Striatum, 2 hr): −1.54 | Top2b (1448458_PM_at) differential expression ([1]; Striatum, 2 hr): −1.56 | Aox1 (1419435_PM_at) differential expression ([1]; Striatum, 7 hr): 1.95 | Adamts9 (1437785_PM_at) differential expression ([1]; Striatum, 12 hr): −2.58 | Galnt12 (1437760_PM_at) differential expression ([1]; Striatum, 12 hr): 1.50 | Hrh3 (1448807_PM_at) differential expression ([1]; Striatum, 12 hr): 1.59 | Itpkb (1435272_PM_at) differential expression ([1]; Striatum, 12 hr): −1.56 | Pvrl3 (1457257_PM_x_at) differential expression ([1]; Striatum, 12 hr): −1.80 | St18 (1455123_PM_at) differential expression ([1]; Striatum, 12 hr): −1.69 | Tmprss6 (1428676_PM_at) differential expression ([1]; Striatum, 12 hr): 1.68 | FC Golga3 (1449616_PM_s_at) ([1]; striatum, 100MMF-vs-Veh, 2 h): −1.63 | FC Grin2a (1421616_PM_at) ([1]; striatum, 100MMF-vs-Veh, 2 h): −1.78 | FC Kdm3b (1428320_PM_at) ([1]; striatum, 100MMF-vs-Veh, 2 h): −1.56 | FC Lrrc41 (1427125_PM_s_at) ([1]; striatum, 100MMF-vs-Veh, 2 h): −1.54 | FC Top2b (1448458_PM_at) ([1]; striatum, 100MMF-vs-Veh, 2 h): −1.56 | FC probe 1442867_PM_at ([1]; striatum, 100MMF-vs-Veh, 2 h): −1.57 | FC Aox1 (1419435_PM_at) ([1]; striatum, 100MMF-vs-Veh, 7 h): 1.95 | FC Adamts9 (1437785_PM_at) ([1]; striatum, 100MMF-vs-Veh, 12 h): −2.58 | FC Galnt12 (1437760_PM_at) ([1]; striatum, 100MMF-vs-Veh, 12 h): 1.50 | FC Hrh3 (1448807_PM_at) ([1]; striatum, 100MMF-vs-Veh, 12 h): 1.59 | FC Itpkb (1435272_PM_at) ([1]; striatum, 100MMF-vs-Veh, 12 h): −1.56 | FC Pvrl3 (1457257_PM_x_at) ([1]; striatum, 100MMF-vs-Veh, 12 h): −1.80 | FC St18 (1455123_PM_at) ([1]; striatum, 100MMF-vs-Veh, 12 h): −1.69 | FC Tmprss6 (1428676_PM_at) ([1]; striatum, 100MMF-vs-Veh, 12 h): 1.68 | Gna13 mRNA fold change vs vehicle [1, 3]: −1.63 | Golga3 mRNA fold change vs vehicle [1, 3]: −1.63 | Grin2a mRNA fold change vs vehicle [1, 3]: −1.78 | Kdm3b mRNA fold change vs vehicle [1, 3]: −1.56 | Lrrc41 mRNA fold change vs vehicle [1, 3]: −1.54 | Top2b mRNA fold change vs vehicle [1, 3]: −1.56 | Aox1 mRNA fold change vs vehicle ([1]; striatum, 7 hr after single 100 mg/kg oral dose): 1.95 | Adamts9 mRNA fold change vs vehicle [1, 4]: −2.58 | Galnt12 mRNA fold change vs vehicle [1, 4]: 1.50 | Hrh3 mRNA fold change vs vehicle [1, 4]: 1.59 | Itpkb mRNA fold change vs vehicle [1, 4]: −1.56 | Pvrl3 mRNA fold change vs vehicle [1, 4]: −1.80 | St18 mRNA fold change vs vehicle [1, 4]: −1.69 | Tmprss6 mRNA fold change vs vehicle [1, 4]: 1.68 | Number of genes, DMF Only / MMF Only ([2]; Cortex): 14 | Arnt2 (1420670_PM_at) differential expression ([2]; Cortex, 2 hr): −1.66 | Atrn (1421166_PM_at) differential expression ([2]; Cortex, 2 hr): −1.62 | Chka (1442277_PM_at) differential expression ([2]; Cortex, 2 hr): −1.53 | Ednrb (1423594_PM_a_at) differential expression ([2]; Cortex, 2 hr): −1.53 | Extl3 (1421339_PM_at) differential expression ([2]; Cortex, 2 hr): −1.57 | Mkln1 (1416734_PM_at) differential expression ([2]; Cortex, 2 hr): −1.85 | Plekhm3 (1438108_PM_at) differential expression ([2]; Cortex, 2 hr): −1.50 | Ptk2 (1430827_PM_a_at) differential expression ([2]; Cortex, 2 hr): −1.53 | Ptprg (1456070_PM_at) differential expression ([2]; Cortex, 2 hr): −1.83 | Speer4b (1429992_PM_at) differential expression ([2]; Cortex, 2 hr): −1.60 | Tanc2 (1443123_PM_at) differential expression ([2]; Cortex, 2 hr): −1.72 | Top2b (1448458_PM_at) differential expression ([2]; Cortex, 2 hr): −1.51 | Trak2 (1429607_PM_at) differential expression ([2]; Cortex, 2 hr): −1.57 | Aox1 (1419435_PM_at) differential expression ([2]; Cortex, 7 hr): 1.65 | Fgfbp1 (1419086_PM_at) differential expression ([2]; Cortex, 7 hr): 1.62 | Aox1 (1419435_PM_at) differential expression ([2]; Cortex, 12 hr): 1.54 | Number of differentially expressed genes identified: Cortex ([2]; 2 h after last dosing): 9 | Number of differentially expressed genes identified: Cortex ([2]; 7 h after last dosing): 2 | Number of differentially expressed genes identified: Cortex ([2]; 12 h after last dosing): 1 | FC Arnt2 (1420670_PM_at) ([2]; cortex, 100MMF-vs-Veh, 2 h): −1.66 | FC Atrn (1421166_PM_at) ([2]; cortex, 100MMF-vs-Veh, 2 h): −1.62 | FC Ednrb (1423594_PM_a_at) ([2]; cortex, 100MMF-vs-Veh, 2 h): −1.53 | FC Mkln1 (1416734_PM_at) ([2]; cortex, 100MMF-vs-Veh, 2 h): −1.85 | FC Plekhm3 (1438108_PM_at) ([2]; cortex, 100MMF-vs-Veh, 2 h): −1.50 | FC Ptk2 (1430827_PM_a_at) ([2]; cortex, 100MMF-vs-Veh, 2 h): −1.53 | FC Tanc2 (1443123_PM_at) ([2]; cortex, 100MMF-vs-Veh, 2 h): −1.72 | FC Top2b (1448458_PM_at) ([2]; cortex, 100MMF-vs-Veh, 2 h): −1.51 | FC Trak2 (1429607_PM_at) ([2]; cortex, 100MMF-vs-Veh, 2 h): −1.57 | FC Aox1 (1419435_PM_at) ([2]; cortex, 100MMF-vs-Veh, 7 h): 1.65 | FC Fgfbp1 1419086_PM_at ([2]; cortex, 100MMF-vs-Veh, 7 h): 1.62 | FC Aox1 (1419435_PM_at) ([2]; cortex, 100MMF-vs-Veh, 12 h): 1.54 | Arnt2 mRNA fold change vs vehicle [2, 5]: −1.66 | Atrn mRNA fold change vs vehicle [2, 5]: −1.62 | Chka mRNA fold change vs vehicle [2, 5]: −1.53 | Ednrb mRNA fold change vs vehicle [2, 5]: −1.53 | Extl3 mRNA fold change vs vehicle [2, 5]: −1.57 | Mkln1 mRNA fold change vs vehicle [2, 5]: −1.85 | Plekhm3 mRNA fold change vs vehicle [2, 5]: −1.50 | Ptk2 mRNA fold change vs vehicle [2, 5]: −1.53 | Ptprg mRNA fold change vs vehicle [2, 5]: −1.83 | Speer4b mRNA fold change vs vehicle [2, 5]: −1.60 | Tanc2 mRNA fold change vs vehicle [2, 5]: −1.72 | Top2b mRNA fold change vs vehicle [2, 5]: −1.51 | Trak2 mRNA fold change vs vehicle [2, 5]: −1.57 | Aox1 mRNA fold change vs vehicle [2, 6]: 1.65 | Fgfbp1 mRNA fold change vs vehicle [2, 6]: 1.62 | Aox1 mRNA fold change vs vehicle ([2]; cortex, 12 hr after single 100 mg/kg oral dose): 1.54
